Test results: patent US20190380957A1, “Protein Hydrogels For Treatment Of Neovascular Disease” (New Jersey Institute of Technology, priority 2018, published 2019)

What was measured:
[1] = cited from earlier work
Female Wistar rats = assay: In vivo subcutaneous implantation, histology; set-up: species or system rat; conditions: 200 μL SC implant
NIH 3T3 fibroblasts = assay: In vitro cytocompatibility (LIVE/DEAD viability/cytotoxicity kit); assay type: cell-based; conditions: for cytocompatibility compared to the media+sucrose control: day 3
Procedure: (§1) Cytocompatibility was determined by fibroblast cultures treated with increasing concentrations of the peptide in culture media.
(§2) In Vitro Cytocompatibility: NIH 3T3 fibroblasts were cultured in media (Dulbecco's Modified Eagle Medium supplemented with 10% fetal bovine serum and 1% 100× penicillin streptomycin) in T75 flasks. After the cells reached confluency, they were seeded in a 96-well plate at 2,500 cells/well. Three target conditions (800 μM, 80 μM, and […]; n=6) and a control (media with sucrose; n=6) were tested. For target conditions, the peptide was supplemented in the media, and for the media control, 298 mM sucrose (formulation carrier) was added. Media was changed daily and cytocompatibility was assessed on day 3 using a LIVE/DEAD® viability/cytotoxicity kit. Images were taken on a Nikon Instruments Eclipse Ti-S inverted fluorescence microscope, and cell viability was quantified using NIH ImageJ, a known image analysis and processing software program.

[2] = as above; assay type: cell-based; conditions: mouse, NIH 3T3 fibroblasts; 800 μM SL-Kr5 in media, day 3; control 85-90%, p<0.05; read-out: viability of cells
Procedure: as §1, §2

endothelial cells = conditions: previously shown; cited from earlier work
[3] = molecular target: GRP78 (glucose-regulated protein 78) (Homo sapiens, UniProt P11021); conditions: previously shown; cited from earlier work
GRP78 (glucose-regulated protein 78), sequence (P11021 19-654, species assumed): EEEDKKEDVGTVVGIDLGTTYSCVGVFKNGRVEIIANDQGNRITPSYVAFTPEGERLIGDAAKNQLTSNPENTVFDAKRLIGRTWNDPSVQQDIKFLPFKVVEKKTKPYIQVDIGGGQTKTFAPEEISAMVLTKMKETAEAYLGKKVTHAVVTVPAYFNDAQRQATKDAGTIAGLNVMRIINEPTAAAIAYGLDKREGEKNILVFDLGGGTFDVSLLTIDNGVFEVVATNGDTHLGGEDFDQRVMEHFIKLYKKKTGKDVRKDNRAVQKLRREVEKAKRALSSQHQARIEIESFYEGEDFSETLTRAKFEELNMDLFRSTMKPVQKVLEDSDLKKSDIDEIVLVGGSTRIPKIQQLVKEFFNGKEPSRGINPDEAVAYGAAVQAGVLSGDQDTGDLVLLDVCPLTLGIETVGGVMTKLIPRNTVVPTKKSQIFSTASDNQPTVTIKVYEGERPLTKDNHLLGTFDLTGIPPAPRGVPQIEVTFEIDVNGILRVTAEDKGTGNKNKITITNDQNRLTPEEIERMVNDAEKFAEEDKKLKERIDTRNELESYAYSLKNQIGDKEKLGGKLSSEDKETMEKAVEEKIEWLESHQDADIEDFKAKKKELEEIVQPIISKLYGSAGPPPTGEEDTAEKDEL

[4] = tested on: human umbilical vein endothelial cells (HUVECs); assay: Tube formation assay; assay type: cell-based; conditions: positive control, 1.8 mM suramin in media
Procedure: To assay the anti-angiogenic effect of the self-assembled peptide on endothelial cells, tube formation assays were performed for a range of peptide concentrations. This assay captures the propensity of human ECs or HUVECs to form capillary-like tubules. The process is sensitive to the presence of anti-angiogenic compounds. HUVECs were seeded along with varying concentrations of SL-Kr5 solution on a basement membrane extract matrix to stimulate the formation of capillary tubules. The effects of the peptide on the HUVECs were characterized by measuring the extent of tube formation in terms of total length of tubules formed, number of segments, number of branches, number of junctions, number of nodes, and […] (FIGS. 8A-8F, FIGS. 9A-9D). […]
Tube Formation Assay: HUVECs (Lonza) were cultured in T75 flasks using an Endothelial Cell Growth Medium BulletKit (Lonza). […] The negative control was supplemented with 298 mM sucrose to match the corresponding highest quantity added to the test conditions, and the positive control contained 1.8 mM suramin. The 96-well plate was then incubated at 37° C. for 4 to 6 hours before imaging on a Nikon Instruments Eclipse Ti-S inverted fluorescence microscope. Tube length was quantified using NIH ImageJ software.

K2(SL)6K2
basal level of angiogenesis ([1]; no VEGF mimic): strong basal level of angiogenesis
in vivo biodegradation time ([1]; slow biodegradation): 6 weeks

Ac-KSLSLSLSLSLSLKGPRKLYDY-NH2 [SL-Kr5, K-(SL)6-K-G-PRKLYDY]
fibrous capsule (Female Wistar rats): no fibrous capsule apparent
cytocompatibility compared to the media+sucrose control (NIH 3T3 fibroblasts; 8 μM SL-Kr5 in media): little to no difference
cytocompatibility compared to the media+sucrose control (NIH 3T3 fibroblasts; 80 μM SL-Kr5 in media): little to no difference
non-specific toxicity in stromal cells (NIH 3T3 fibroblasts; fibroblast cultures, increasing peptide concentrations): did not induce non-specific toxicity
cellular proliferation versus controls (NIH 3T3 fibroblasts; over a range of concentrations): comparable cellular proliferation to controls
viability at 72 h, 800 µM [2]: 55%

PRKLYDY (Kr5)
apoptosis of endothelial cells (endothelial cells): induce apoptosis
attachment to GRP78 [3]: can attach

Cc1ccc(C(=O)Nc2ccc(S(=O)(=O)O)c3cc(S(=O)(=O)O)cc(S(=O)(=O)O)c23)cc1NC(=O)c1cccc(NC(=O)Nc2cccc(C(=O)Nc3cc(C(=O)Nc4ccc(S(=O)(=O)O)c5cc(S(=O)(=O)O)cc(S(=O)(=O)O)c45)ccc3C)c2)c1 [suramin]
EC tube formation [4]: inhibited
